This is an account of results in patent US6521631B2, “Heterocyclic sulfonamides” (Hoffmann-La Roche Inc., priority 1999, dated 2003).

In one series the test system is isolated rat aorta rings. The settings on record: for pA2: shift to the right of the endothelin-1 dosage-activity curve, endothelium-denuded thorax aorta rings.
The next series concerns the target T1, human ETA receptors (Homo sapiens, UniProt P25101).
T1 construct: made in house; host or cells: Baculovirus-infected insect cells (membrane preparation)
T1 sequence (P25101 21-427): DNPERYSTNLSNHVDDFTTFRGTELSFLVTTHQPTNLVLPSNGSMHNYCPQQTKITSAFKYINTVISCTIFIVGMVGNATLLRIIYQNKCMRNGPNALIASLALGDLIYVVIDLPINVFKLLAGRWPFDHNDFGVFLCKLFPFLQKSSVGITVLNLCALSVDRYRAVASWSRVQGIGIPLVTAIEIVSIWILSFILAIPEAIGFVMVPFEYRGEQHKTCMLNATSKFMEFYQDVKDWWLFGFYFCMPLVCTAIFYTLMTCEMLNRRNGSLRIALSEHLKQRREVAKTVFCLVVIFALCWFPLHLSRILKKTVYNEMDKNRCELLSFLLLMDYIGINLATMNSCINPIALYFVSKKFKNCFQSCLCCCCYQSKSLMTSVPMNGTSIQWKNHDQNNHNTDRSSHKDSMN
Description: Inhibition of 125I-endothelin binding to recombinant human ETA receptors expressed in Baculovirus-infected insect cells. Conditions: recombinant human ETA receptor membranes, 20 pM 125I-endothelin; read-out: IC50, concentration required to inhibit 50% of the specific binding of 125I-endothelin. The procedure: I. Inhibition of Endothelin Binding to Recombinant Human ETA Receptors Expressed in Baculovirus-infected Insect Cells
A cDNA coding for human ETA receptors of human placenta was cloned (M. Adachi, Y.-Y. Yang, Y. Furuichi and C. Miyamoto, BBRC 180, 1265-1272) and expressed in the Baculovirus-insect cell system. Baculovirus-infected insect cells from a 23 l fermenter are centrifuged off (3000×g, 15 minutes, 4° C.) 60 hours after the infection, re-suspended in Tris buffer (5 mM, pH 7.4, 1 mM MgCl2) and again centrifuged. After a further re-suspension and centrifugation the cells are suspended in 800 ml of the same buffer and freeze-dried at −120° C. The cells disintegrate when the suspension in this hypotonic buffer mixture is thawed. After a repeated […]/thawing cycle the suspension is homogenised and centrifuged (25000×g, 15 minutes, 4° C.). After suspension in Tris buffer (75 mM, pH 7.4, 25 mM MgCl2, 250 mM sucrose) 1 ml aliquots (protein content about 3.5 mg/ml) are stored at −85° C.
For the binding assay, the freeze-dried membrane preparations are thawed and, after centrifugation at 20° C. and 25000 g for 10 minutes, re-suspended in assay buffer (50 mM Tris buffer, pH 7.4, containing 25 mM MnCl2, 1 mM EDTA and 0.5% bovine serum albumin). 100 μl of this membrane suspension containing 70 μg of protein are incubated with 50 μl of ^125I-endothelin (specific activity 2200 Ci/mMol) in assay buffer (25000 cpm, final concentration 20 pM) and 100 μl of assay buffer containing varying concentrations of test compound. The incubation is carried out at 20° C. for 2 hours or at 4° C. for 24 hours. The separation of free and membrane-bound radio-ligands is carried out by filtration over a glass fibre filter. The inhibitory activity of compounds of formula (I) determined in this test procedure is given in Table 1 as the IC50, i.e. as the concentration [nM] which is required to inhibit 50% of the specific binding of ^125I-endothelin.

The EC50 is the concentration giving half of the maximal effect. Usually melting point stands for the temperature of the solid-liquid transition.

Description for isolated rat aorta rings: Inhibition of Endothelin-induced Contractions in Isolated Rat Aorta Rings
Rings with a length of 5 mm were cut out from the thorax aorta of adult Wistar-Kyoto rats. The endothelium was removed by lightly rubbing the internal surface. Each ring was immersed at 37° C. in 10 ml of Krebs-Henseleit solution in an isolated bath while gassing with 95% O2 and 5% CO2. The isometric stretching of the rings was measured. The rings were stretched to a pre-tension of 3 g. After incubation for 10 minutes with the test compound or vehicle cumulative dosages of endothelin-1 were added. […] This shift to the right (or “dose ratio”, DR) corresponds to the quotient from the EC50 values of endothelin-1 in the presence and in the absence of antagonist, with the EC50 value denoting the endothelin concentration required for a half-maximum contraction.
The corresponding pA2 value, which is a measure of the activity of the test compound, was calculated using a computer programme according to the following equation from the “dose ratio” DR for each individual dosage-activity curve.
pA2=log(DR−1)−log(antagonist-concentration)

Consider `CC[C@H](C)[C@H](NC(=O)[C@H](CC(=O)O)NC(=O)[C@H](CC(C)C)NC(=O)[C@H](Cc1c[nH]cn1)NC(=O)[C@@H]1CSSC[C@H](N)C(=O)N[C@@H](CO)C(=O)N[C@H]2CSSC[C@H](NC(=O)[C@H](CCC(=O)O)NC(=O)[C@H](CCCCN)NC(=O)[C@H](CC(=O)O)NC(=O)[C@H](CCSC)NC(=O)[C@H](CC(C)C)NC(=O)[C@H](CO)NC(=O)[C@H](CO)NC2=O)C(=O)N[C@@H](C(C)C)C(=O)N[C@@H](Cc2ccc(O)cc2)C(=O)N[C@@H](Cc2ccccc2)C(=O)N1)C(=O)N[C@H](C(=O)N[C@@H](Cc1c[nH]c2ccccc12)C(=O)O)[C@@H](C)CC` [endothelin, reference compound], for which the EC50 with isolated rat aorta rings (read-out: EC50 of endothelin in the absence of test compounds, endothelin concentration required for a half-maximum contraction, no antagonist) is 0.3 nM.

Compound `COc1ccccc1Oc1c(NS(=O)(=O)c2ccc(C(C)C)cn2)nc(-c2ccncc2)nc1OC` [Example 2, 5-isopropyl-pyridine-2-sulfonic acid[6-methoxy-5-(2-methoxy-phenoxy)-2-pyridin-4-yl-pyrimidin-4-yl]-amide] gave a melting point of 195 to 197 °C. The IC50 on human ETA receptors is at most 50 nM. Moreover, the pA2 entry with isolated rat aorta rings was “≧8.0”.

On to `COc1ccccc1Oc1c(NS(=O)(=O)c2ccc(C)cn2)nc(-c2ccncc2)nc1OC` [Example 1, 5-methyl-pyridine-2-sulfonic acid[6-methoxy-5-(2-methoxy-phenoxy)-2-pyridin-4-yl-pyrimidin-4-yl]-amide], for which, at human ETA receptors, the IC50 was at most 50 nM. The pA2 entry in the series on isolated rat aorta rings is recorded as “≧8.0”.

In the case of `C=C(C)c1ccc(S(=O)(=O)Nc2nc(-c3ccncc3)nc(OC)c2Oc2ccccc2OC)nc1` [Example 3, 5-isopropenyl-pyridine-2-sulfonic acid[6-methoxy-5-(2-methoxy-phenoxy)-2-pyridin-4-yl-pyrimidin-4-yl]-amide], the IC50 at human ETA receptors is at most 50 nM.
